{"source": "patent US20230065562A1", "about": "“DUAL CONTROLS FOR THERAPEUTIC CELL ACTIVATION OR ELIMINATION” (Bellicum Pharmaceuticals, Inc., priority 2015, published 2023)", "key": {"[1]": {"system": "CD3+ΔCD19+ (iCasp9+) T cells", "assay": "CASPALLO phase 1 clinical trial: AP1903 in patients with GvHD after iCasp9+ T cells", "details": "human, in vivo"}, "human CD3+CD19+ T cells": {"system": "human CD3+CD19+ T cells", "assay": "AP1903 dose-dependent elimination in vivo of iCasp9-transduced T cells", "parameters": "species or system immune deficient mice (NSG)", "details": "mouse", "description": "The Caspase-9 polypeptide has a dose-response curve in vivo, which could be used to eliminate a variable fraction of T cells expressing the Caspase-9 polypeptide.\nT cells were transduced with SFG-iCasp9-D330E-2A-ΔCD19 retrovirus and injected i.v. into immune deficient mice (NSG). […] After an additional 24 hours, mice were sacrificed and lymphocytes from the spleen (A) were isolated and analyzed by flow cytometry for the frequency of human CD3^+CD19^+ T cells."}, "[2]": {"details": "cited from earlier work"}, "293 cells": {"system": "293 cells", "assay": "SEAP assay: FRB-tagged CAR plus iCaspase-9 in 293 cells", "format": "cell-based", "details": "iCaspase-9", "description": "FIGS. 6A and 6B provide the results of an assay of two-tiered activation of apoptosis.\nAs a proof of principal, two tandem FRB, domains were fused to either a 1st generation Her2-CAR or to a 1st generation CD19-CAR co-expressing inducible Caspase-9. 293 cells were transiently transfected with a constitutive reporter plasmid, SRα-SEAP, along with normalized levels of expression plasmids encoding Her2-CAR-FRB2, iCaspase-9, Her2-CAR-FRBl2+iCasp9, iC9-CAR(19).FRBl2 (coexpressing both CD19-CAR-FRBl2 and iCaspase9), or control vector. […] After overnight incubation with drugs, SEAP activity was determined. […] This dose-dependent decrease required the presence of both the FRB-tagged CAR and the FKBP-tagged Caspase-9. […] Moreover, on- or off-target-mediated CAR clustering should increase the sensitivity of killing primarily at the site of scFv engagement."}, "cells": {"system": "cells", "assay": "AP1903 amount needed in vitro for effective signaling of cells", "format": "cell-based", "description": "This equates to 16-160 μg/L or […] (1.6-160 μg/kg)."}, "[3]": {"target": "wt FRB (K2095 T2098 W2101) (Homo sapiens, UniProt P42345+P62942)", "sequence (P42345 2012-2144 limits assumed)": "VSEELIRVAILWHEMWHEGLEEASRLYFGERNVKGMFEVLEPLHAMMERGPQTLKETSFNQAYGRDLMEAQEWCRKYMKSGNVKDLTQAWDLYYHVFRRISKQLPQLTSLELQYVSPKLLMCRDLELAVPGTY", "sequence (P62942 2-108 limits assumed)": "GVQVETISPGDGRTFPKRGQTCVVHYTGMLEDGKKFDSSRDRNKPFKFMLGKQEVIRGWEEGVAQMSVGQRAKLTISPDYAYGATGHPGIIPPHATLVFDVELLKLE", "details": "cited from earlier work"}, "FRB-PLF": {"target": "FRB-PLF (Homo sapiens, UniProt P42345+P62942, K2095P/T2098L/W2101F)", "sequence (P42345 2012-2144 K2095P/T2098L/W2101F)": "as the sequence (P42345 2012-2144 limits assumed) above, with K84P, T87L, W90F counted along it", "sequence (P62942 2-108)": "as the sequence (P62942 2-108 limits assumed) above", "details": "cited from earlier work"}, "HPAC PSCA+ tumor cells": {"system": "HPAC PSCA+ tumor cells", "assay": "T cell anti-tumor assay with HPAC-RFP cells (IncuCyte, ELISA)", "format": "cell-based, human", "details": "2 nM, E:T 1:30", "description": "PBMCs from donor 920 were activated and co-transduced with GFP-Ffluc and iMC+CARζ-T (189), i9+CARζ+MC (873), or FwtFRBC9/MC.FvFv (1308)-encoding vectors. […] (A & B) Two days post-seeding, culture supernatants were analyzed for IL-2, IL-6, and IFN-γ production by ELISA. […] Numbers of HPAC-RFP and T cell-GFP at the E:T 1:2 ratio was analyzed using the basic analyzer software for the IncuCyte at day 7 (Ci) and day 8 with 0 nM suicide drug (Cii) and 10 nM suicide drug (Ciii). Similar analysis was also performed at the 1:5 E:T ratio (D). (Note: the y-axis in Ci and Di are at log-scale).\nThe HPAC PSCA^+ tumor cells were stably labeled with nuclear-localized RFP protein using the NucLight™ Red Lentivirus Reagent (Essen Bioscience, 4625). To set up the coculture, 4000 HPAC-RFP cells were seeded per well of 96-well plates in 100 μl of CTL medium without IL-2 for at least 4 hours to allow tumor cells to adhere. After transduction with the appropriate retrovirus and allowed to rest for at least 7 days in culture, T were seeded according to various E:T ratios to the HPAC-RFP-containing 96-well plates. […] Each plate was set up in duplicates, one plate to monitor with the IncuCyte cell imaging system and one plate for supernatant collection for ELISA assay on day 2. The plates were centrifuged for 5 min at 400×g and placed inside the IncuCyte (Essen Bioscience, Dual Color Model 4459) to monitor red fluorescence (and green fluorescence if T cells were labeled with GFP-Ffluc) every 2-3 hours for a total of 7 days at 10× objective. Image analysis was performed using the “HPAC-RFP_TcellsGFP_10×_MLD” processing definition. On day 7, HPAC-RFP cells were analyzed using the “Red Object Count (1/well)” metric. […] On day 8, Tcell-GFP cells were analyzed using the “Total Green Object Integrated Intensity” metric. Each condition was performed at least in duplicates and each well was imaged at 4 different locations."}, "FRBL": {"target": "FRBL (Homo sapiens, UniProt P42345+P62942, T2098L)", "sequence (P42345 2012-2144 T2098L limits assumed)": "as the sequence (P42345 2012-2144 limits assumed) above, with T87L counted along it", "sequence (P62942 2-108 limits assumed)": "as the sequence (P62942 2-108 limits assumed) above", "assay": "Rapalog binding to mutant FRB (FRBL/KLW) versus wild-type FRB"}, "Raji-GFP cells": {"system": "Raji-GFP cells", "assay": "Raji-GFP coculture with CD19 CAR-T cells (flow cytometry)", "format": "cell-based, human", "details": "2 nM, E:T 1:5, seven days", "quoted_text": "After seven days of incubation the live cells were analyzed for the proportion of GFP labeled tumor cells (left) and for the proportion of total T cells (CD3^+, right) and transduced CAR-T cells (CD34, not shown).\nRaji cells (ATCC) labeled by stable expression of Green Fluorescent Protein (Raji-GFP) are a Burkitt's lymphoma cell line that express CD19 on the cell surface and are a target for an anti-CD19 CAR. 50000 Raji-GFP cells were seeded on a 24 well plate with 10000 CAR-T cells, a 1:5 E:T ratio. Media supernatant was taken at 48 hours for determination of cytokine release by activated CAR-T cells. The degree of tumor killing was determined at 7 days and 14 days by flow cytometry (Galeos, Beckman-Coulter) by the proportion of GFP labeled tumor cells and CD3 labeled T cells."}, "NF-κB": {"system": "NF-κB", "assay": "NF-κB SeAP reporter assay of inducible MyD88/CD40 activity", "format": "cell-based", "quoted_text": "293T cells were transfected with 1 μg of reporter construct NF-κB SeAP and 4 μg of the iMC+CARζ construct pBP0774 or the MC-rap-CAR construct pBP1440 using the GeneJuice protocol (Novagen). […] After 24 hours of further incubation SeAP activity was determined from cell supernatants.\nHEK 293T cells (1.5×10^5) were seeded on a 100-mm tissue culture dish in 10 mL DMEM4500, supplemented with glutamine, penicillin/streptomycin and 10% fetal calf serum. After 16-30 hours incubation, cells were transfected using Novagen's GeneJuice® protocol. Briefly, for each transfection, 0.5 mL OptiMEM was pipetted into a 1.5-mL microcentrifuge tube and 15 μL GeneJuice reagent added followed by 5 sec. vortexing. Samples were rested 5 minutes to settle the GeneJuice suspension. DNA (5 μg total) was added to each tube and mixed by pipetting up and down four times. Samples were allowed to rest for 5 minutes for GeneJuice-DNA complex formation and the suspension added dropwise to one dish of 293T cells. A typical transfection contains 1 μg NFkB-SEAP (5), 4 μg iMC+CARζ(pBP0774) or 4 μg MC-Rap-CAR (pBP1440) (1).\n24 hours following transfection (4.1), 293T cells were split to 96-well plates and incubated with dilutions of dimerizing drugs. Briefly, 100 μL media was added to each well of a 96-well flat-bottom plate. Drugs were diluted in tubes to a concentration 4× the top concentration in the gradient to be place on the plate. […] 100 μL from each drug-containing well was then transferred to the adjacent well and the cycle repeated 10 times to produce a serial two-fold step gradient. The last wells were untreated and serve as a control for basal reporter activity. Transfected 293 cells were then trypsinized, washed with complete media, suspended in media and 100 μL aliquoted to each well containing drug (or no drug). Cells were incubated 24 hours.\n24 hours after drug stimulation, 96-well plates were wrapped to prevent evaporation and incubated at 65° C. for 2 hours to inactivate endogenous and serum phosphatases while the heat-stable SeAP reporter remains (3, 12, 14). 100 μL samples from each well were loaded into individual wells of a 96-well assay plate with black sides. Samples were incubated with 0.5 mM 4-methylumbelliferyl phosphate (4-MUP) in 0.5 M diethanolamine at pH 10.0 for 4 to 16 hours. Phosphatase activity was measured by fluorescence with excitation at 355 nm and emission at 460 nm. Data was transferred to a Microsoft Excel spreadsheet for tabulation and graphed with GraphPad Prism."}, "transduced T cells": {"system": "transduced T cells", "assay": "T cell caspase assay (IncuCyte, caspase 3/7 green reagent)", "format": "cell-based, human", "details": "over 100 fold above the level used to activate MC-rap", "description": "To enable detection of apoptosis using the IncuCyte instrument, 2 μM of IncuCyte™ Kinetic Caspase-3/7 Apoptosis reagent (Essen Bioscience, 4440) were add to each well to reach a total volume of 200 μl. The plates were centrifuged for 5 min at 400×g and placed inside the IncuCyte (Dual Color Model 4459) to monitor green fluorescence every 2-3 hours for a total of 48 hours at 10× objective. Image analysis was performed using the “Tcells_caspreagent_phase_green_10×_MLD” processing definition. The “Total Green Object Integrated Intensity” metric is used to quantify caspase activation. Each condition was performed in duplicates and each well was imaged at 4 different locations.\nTo enable detection of apoptosis using the IncuCyte instrument, 2 μM of IncuCyte™ Kinetic Caspase-3/7 Apoptosis reagent (Essen Bioscience, 4440) was added to each well to reach a total volume of 200 μl. The plates were centrifuged for 5 min at 400×g and placed inside the IncuCyte (Dual Color Model 4459) to monitor green fluorescence every 2-3 hours for a total of 48 hours at 10× objective. Image analysis was performed using the “Tcells_caspreagent_phase_green_10×_MLD” processing definition. The “Total Green Object Integrated Intensity” metric and the “Phase Object Confluence (Percent)” were used to quantify caspase activation. Each condition was performed in duplicate and each well was imaged at 4 different locations."}, "[4]": {"system": "transduced T cells (human PBMCs)", "assay": "IL-6 ELISA as indicator of MC activity in transduced T cells", "format": "cell-based", "details": "pBP1440, 24 hours"}, "FRB-KTF": {"target": "FRB-KTF (Homo sapiens, UniProt P42345+P62942, W2101F)", "sequence (P42345 2012-2144 W2101F limits assumed)": "as the sequence (P42345 2012-2144 limits assumed) above, with W90F counted along it", "sequence (P62942 2-108 limits assumed)": "as the sequence (P62942 2-108 limits assumed) above", "details": "cited from earlier work"}}}
{"compound": "CC[C@H](C(=O)N1CCCC[C@H]1C(=O)O[C@H](CCc1ccc(OC)c(OC)c1)c1cccc(OCC(=O)NCCNC(=O)COc2cccc([C@@H](CCc3ccc(OC)c(OC)c3)OC(=O)[C@@H]3CCCCN3C(=O)[C@@H](CC)c3cc(OC)c(OC)c(OC)c3)c2)c1)c1cc(OC)c(OC)c(OC)c1", "note": "(relative stereo) [AP1903, 2-Piperidinecarboxylic acid, 1-[(2S)-1-oxo-2-(3,4,5-trimethoxyphenyl)butyl]-, 1,2-ethanediylbis[imino(2-oxo-2,1-ethanediyl)oxy-3,1-phenylene[(1R)-3-(3,4-dimethoxyphenyl)propylidene]] ester, [2S-[1(R*),2R*[S*[S*[1(R*),2R*]]]]]-(9C1)]", "values": [{"measurement": "further reduction of CD3+ΔCD19+ cells within 24 hours", "setting": "[1]", "value": "further log reduction"}, {"measurement": "time to resolution of skin and liver aGvHD", "setting": "[1]", "value": "≤ 24", "unit": "h"}, {"measurement": "dose sufficient to eliminate most modified T cells in vivo", "setting": "human CD3+CD19+ T cells", "value": 0.5, "unit": "mg/kg"}, {"measurement": "safety and tolerability in healthy volunteers", "setting": "[2]; 0.01-1.0 mg/kg, listed as API 903", "value": "No significant adverse effects"}, {"measurement": "adverse event considered possibly related to AP1903", "setting": "[2]; 1 volunteer at 1.0 mg/kg", "value": "vasodilatation"}, {"measurement": "plasma level, % of maximal concentration at 2 hours post-dose", "setting": "[2]; IV infusion over 2 hours", "value": "~7", "unit": "%"}, {"measurement": "plasma level, % of maximal concentration at 10 hours post-dose", "setting": "[2]; IV infusion over 2 hours", "value": "~1", "unit": "%"}, {"measurement": "serious adverse events", "setting": "[2]; Phase 1 study in volunteers", "value": "No serious adverse events"}, {"measurement": "well-tolerated doses", "setting": "[2]; Phase 1 study", "value": "up to 1 mg/kg"}, {"measurement": "SEAP activity, % of normal levels", "setting": "293 cells", "value": "about 20%"}, {"measurement": "amount needed in vitro for effective signaling of cells", "setting": "cells", "value": "10 to 100", "unit": "nM"}]}
{"compound": "CO[C@@H]1C[C@H](C[C@@H](C)[C@@H]2CC(=O)[C@H](C)/C=C(\\C)[C@@H](O)[C@@H](OC)C(=O)[C@H](C)C[C@H](C)/C=C/C=C/C=C(\\C)[C@H](OC(C)C)C[C@@H]3CC[C@@H](C)[C@@](O)(O3)C(=O)C(=O)N3CCCC[C@H]3C(=O)O2)CC[C@H]1O", "note": "[R-Isopropoxyrapamycin]", "values": [{"measurement": "EC50", "setting": "[3]", "value": "~300", "unit": "nM"}, {"measurement": "EC50", "setting": "FRB-PLF", "value": "~8.5", "unit": "nM"}]}
{"compound": "C7-isobutyloxyrapamycin", "values": [{"measurement": "tumor cell control by MC-rap containing CAR-T cells", "setting": "HPAC PSCA+ tumor cells", "value": "able to control tumor cells as effectively as rimiducid stimulated iMC"}, {"measurement": "affinity for mutant FRB domain KLW", "setting": "FRBL", "value": "subnanomolar affinity"}, {"measurement": "binds FRBL at concentrations lower than wild-type FRB in mTOR", "setting": "FRBL", "value": 20, "unit": "fold"}, {"measurement": "CAR-T cells with FwtFRBC9/MC.FvFv", "setting": "Raji-GFP cells", "value": "cause cell death"}, {"measurement": "EC50 / concentration stimulating NF-κB reporter activity via MC-Rap", "setting": "NF-κB; MC-rap-CAR construct pBP1440", "value": "subnanomolar"}, {"measurement": "EC50", "setting": "NF-κB; iRMC (KLW, wild-type FKBP12, MyD88, CD40), read-out: EC50, NF-κB activity via iRMC", "value": "< 1", "unit": "nM"}, {"measurement": "activation of apoptosis at high concentrations", "setting": "transduced T cells", "value": "insufficient to activate apoptosis"}, {"measurement": "MC activity (secreted IL-6) in MC-rap-T cells", "setting": "[4]", "value": "strongly responsive"}]}
{"compound": "S-Butanesulfonamidorap [S-Butanesulfonamidorap (AP23050)]", "values": [{"measurement": "EC50", "setting": "[3]", "value": "~2.7", "unit": "nM"}, {"measurement": "EC50", "setting": "FRB-KTF", "value": "> 200", "unit": "nM"}]}
